{
  "source": "paper PMC9256669",
  "about": "“Monomethyl auristatin antibody and peptide drug conjugates for trimodal cancer chemo-radio-immunotherapy” (Nature Communications, 2022)",
  "key": {"[1]": {"test_system": "MOC1 tumors", "assay": "Subcutaneous tumor therapy, ADC monotherapy, mouse survival", "type": "in vivo, C57BL/6 mice", "description": "(§3) MOC1, B16, LL/2, and MC38 tumor cells were injected subcutaneously into the hindlimbs of 6-week-old female C57BL/6 albino mice in 100 µl of 1:1 Matrigel (BD) and PBS solution. Fractionated IR was delivered focally to the tumor-bearing hindlimbs (3 Gy to MC38 tumors and 5 Gy to LL/2 and B16 tumors) as indicated in figure legends using a PXI X-RAD 225 XL irradiator at maximal dose rate of 3 Gy/min with a beam-conditioning aluminum filter (Precision X-ray Irradiation). For RAG1 KO studies, 6-week-old female Rag1^tm1Mom mice were injected subcutaneously with tumor cells in their hindlimbs (Jackson Labs). For CD8 depletion studies, mice were i.p. injected with anti-CD8 (BioXCell #BE0117) at 10 mg/kg on days −6, −5 and −4 tumor cell implant and then weekly starting on day after tumor cells were injected or control antibody. […] Tumor volumes were measured and calculated using the formula as ½ * length * width^2. Mice were sacrificed when tumor volume reached >1500 mm^3, maximal tumor volume approved on our protocol for subcutaneous tumors."}, "[2]": {"test_system": "B16 tumors", "assay": "Subcutaneous tumor therapy, ADC monotherapy, mouse survival", "type": "in vivo, C57BL/6 mice", "description": "as §3"}, "[3]": {"test_system": "B16 tumors", "conditions": "status at the day printed in the same line, one line per mouse", "description": "as §3"}, "[4]": {"test_system": "A549", "assay": "Cytotoxicity, Alamar Blue assay", "type": "cell-based, human", "conditions": "72 h drug exposure, one value per biological replicate", "experimental": "(§1) Cells were plated in 96-well plates and exposed to a drug concentration range for 72 h. Alamar Blue was added to the cells and allowed to incubate for 2–4 h at 37 °C. Plates were analyzed using a plate reader with fluorescence measured at 560 nm. Fractional survival was normalized to untreated control cell fluorescent values. Drug IC50 was calculated using Prism software (GraphPad, La Jolla, CA). Cell viability, cytotoxicity and apoptosis were also measured by ApoTox-Glo Triplex Assay (Promega)."}, "[5]": {"test_system": "HCT116", "assay": "Cytotoxicity, Alamar Blue assay", "type": "cell-based, human", "conditions": "72 h drug exposure, one value per biological replicate", "experimental": "as §1"}, "[6]": {"test_system": "B16 cells", "assay": "Clonogenic survival with MMAE and 2 Gy (SF2)", "type": "cell-based, murine", "set-up": "key to SF2: fraction surviving 2 Gy relative to non-irradiated cells", "conditions": "for SF2: Figure 3d, six single replicates", "experimental": "Cells were treated with MMAE for 24 h and then irradiated with 2 Gy. […] Following IR, cells were counted, re-plated at varying cell numbers in drug free media. 10–14 days after initial seeding formed colonies were methanol fixed, stained with crystal violet, and counted. Surviving fraction at 2 Gy (SF2) was calculated as the fraction of cells surviving 2 Gy compared to non-irradiated cells."}, "[7]": {"test_system": "4MOSC1 tumors", "assay": "Orthotopic syngeneic tumor ACPP therapy, tumor volumes", "type": "in vivo, C57BL/6 mice", "conditions": "orthotopic 4MOSC1 tumors, conjugate monotherapy", "text": "(§2) Orthotopic tongue xenograft tumors were established in 6-week-old NOD SCID mice by injecting 150,000 CAL27 parental (WT) or PIK3CA H1047R-expressing cells. […] On the last day of tumor xenograft measurements, mice were euthanized, tongues resected, imaged, and fixed. […] IR was delivered as 2 parallel opposed fields."}, "[8]": {"test_system": "4NQO-induced tongue tumors", "conditions": "10 nmoles ACPP-MMAE x 2 doses + whole tongue IR 5 Gy x 2 at week 20; tongues at week 22; vs untreated control", "experimental": "4-Nitroquinoline N-oxide (4NQO, Sigma Aldrich-N8141) was dissolved in propylene glycol as a stock solution (4 mg/ml) and further diluted in drinking water to a final concentration of 50 μg/ml. […] Since the entire tongue was exposed to 4NQO, the whole tongue was delineated and given 5 Gy × 2 using PXI SmART irradiator with 225 kVp X-ray tube. IR was delivered as 2 parallel opposed fields. All mice were given a full oral cavity examination biweekly, and any observed pathological changes were documented. On week 22, animals were euthanized, and tissues and oral pharynx were fixed in PAXgene tissue FIX (Qiagen) at room temperature for 12 h. Tissues were then transferred to 70% ethanol and paraffin embedded. Tongue sections were H&E stained and histopathologically assessed for the number and size of carcinoma lesions per tongue by a qualified Pathologist (A.A.M.) who was blinded manner to treatment of each slide."}, "[9]": {"test_system": "B16 tumors", "set-up": "species or system C57BL/6 mice", "conditions": "mouse, in vivo", "experimental": "At harvest, tumors were isolated, minced, and re-suspended in FBS-free DMEM media supplemented with components of MACs tumor dissociation kit. Tissues were incubated for 15 min at 37 °C and mechanically digested using the gentle MACs Octo dissociator. Tissue suspensions were washed with fresh media and passed through a 100-µm strainer. Samples were split in half for immediate staining or stimulated with the Biolegend Cell Activation Cocktail (with Brefeldin A) for 3 h. Samples were washed with PBS and immediately processed for live/dead cell discrimination using BD LIVE/DEAD™ Fixable Blue Dead Cell Stain Kit. Cells were washed and stained for surface markers for 30 min at 4 °C. Intracellular staining was performed using the eBioscience FOXP3/Transcription Factor Buffer Set from Invitrogen and stained with intracellular antibodies. […] All antibodies were validated by the supplier. All flow cytometry data acquisition was done using BD LSRFortessa and analyzed using FlowJo software. […]\nRepresentative flow cytometry plots to gate immune cells quantitated in Fig. 4a, b, 4d &\nSupplementary Fig. 10b, c. b) Quantification of tumor immune cell identified by flow cytometry on […]\n(Clone:GB11). In addition, RNA levelsof tumor granzyme-B was analyzed by qPCR. […]"}, "[10]": {"test_system": "orthotopic oral 4MOSC1 tumors", "assay": "Trimodal therapy: ACPP-MMAE, IR and anti-PD-1 antibody", "type": "in vivo, C57BL/6 mice", "conditions": "Figure 5c; individual mice, one line per mouse", "text": "as §2"}, "[11]": {"assay": "Mouse body weight (safety of MMAE with IR, with or without anti-PD-1)", "conditions": "ACPP-MMAE and IR", "text": "LL/2 cells treated with dose range of MMAE overnight and then […] in drug free media for 7-10 days to allow for visualized colonies to form.\nStatistical significances calculated using one-way ANOVA with Tukey’s multiple comparisons test. 0.9 b) Cell cycle analysis […]\nof MMAE treated LL/2 cells, mean ± SD, n=2. […]\nexperiments. c) Clonogenic survival of LL/2 cells treated with MMAE and 2 Gy (SF2). Cell Days viability normalized to non-irradiated cells for each drug condition and plotted as mean fractional survival ± SEM, n=6. Statistical significances calculated using one-way ANOVA with Sidak’s multiple comparisons test. d) Tumor volumes (n=10) and mouse body weights (n=5) of mice from experiments in Fig. 3e. Tumor volumes plotted as mean volume of surviving mice ± SEM.\nMouse body weight were normalized to each mouse’s weight on day 0, i.e. tumor implantation.\nData plotted as mean fractional body weight ± SEM. e) Mouse body weights of mice (n=5) from experiments in Fig. 4h were normalized to each mouse’s weight on day of tumor implantation.\nData is plotted as individual normalized body weights. f) Mouse body weights of mice from experiments in Fig. 5e, f were normalized to each mouse’s weight on day of tumor implantation.\nSource data are provided in Source Data file."}},
  "note": "Several values for one entry are separate records, joined by “and”; a condition that tells them apart may be missing. Equal values may be shown once. Read-outs that look alike come from different tables or passages of the source. Non-standard residues stand in square brackets, D forms with d. Residues, ends and D or L forms follow the SMILES beside them. *: point of attachment. Dolaproine = CO[C@@H]([C@@H]1CCCN1)[C@@H](C)C(=O)O; Dil = CC[C@H](C)[C@H](NC)[C@@H](CC(=O)O)OC; X1 = C[C@@H](N*)[C@@H](O)c1ccccc1; NMeV = CN[C@H](C(=O)O)C(C)C",
  "data": [
    {"compound": "CDX3379-MMAE: anti-HER3 antibody CDX3379 with 4 MMAE per antibody via MC-VC-PABC linker, labeled with Cy5", "values": [
      {"measurement": "anti-tumor activity as measured by mouse survival", "setting": "[1]", "result": "modest anti-tumor activity"},
      {"measurement": "anti-tumor activity as measured by mouse survival", "setting": "[2]", "result": "modest anti-tumor activity"},
      {"measurement": "Survival curve, status", "setting": "[3]; CDX3379-MMAE + IR + αPD1", "result": 0},
      {"measurement": "Survival curve, status", "setting": "[3]; CDX3379-MMAE + IR", "result": "0 and 1"}
    ]},
    {"compound": "CC[C@H](C)[C@@H]([C@@H](CC(=O)N1CCC[C@H]1[C@H](OC)[C@@H](C)C(=O)N[C@H](C)[C@@H](O)c1ccccc1)OC)N(C)C(=O)[C@@H](NC(=O)[C@@H](NC)C(C)C)C(C)C", "note": "[MMAE, monomethyl auristatin E] (H-[NMeV]V[Dil][Dolaproine]-X1)", "values": [
      {"measurement": "IC50", "setting": "[4]", "result": "0.559 nM and 0.513 nM"},
      {"measurement": "IC50", "setting": "[5]", "result": "0.343 nM and 0.431 nM and 0.548 nM and 1.43 nM and 1.52 nM and 1.35 nM"},
      {"measurement": "SF2", "setting": "[6]; MMAE 1 nM with 2 Gy", "result": "0.93 and 0.7 and 0.72 and 0.83 and 0.98"},
      {"measurement": "SF2", "setting": "[6]; MMAE 2 nM with 2 Gy", "result": "0.57 and 0.61 and 0.48 and 0.63 and 0.74"},
      {"measurement": "SF2", "setting": "[6]; MMAE 3 nM with 2 Gy", "result": "0.68 and 0.71 and 0.65 and 0.5 and 0.56"},
      {"measurement": "radiosensitization, clonogenic cell death", "setting": "[6]; murine tumor cells, single nanomolar doses of MMAE, 2 Gy", "result": "sensitized murine tumor cells to IR-mediated clonogenic cell death"}
    ]},
    {"compound": "cyclo(RGD)fc-MC-HN-peg8-e9-oPLGC(Me)AG-r9-c-(MC-VC-PABC-MMAE)-CONH2 [ACPP-MMAE]", "values": [
      {"measurement": "tumor growth", "setting": "[7]", "result": "modest tumor growth delay"},
      {"measurement": "total tumor burden", "setting": "[8]", "result": "significantly decreased total tumor burden"},
      {"measurement": "CD8 T cell granzyme B", "setting": "[9]", "result": "increased CD8 T cell granzyme B at both the transcriptional and protein levels"},
      {"measurement": "Immune checkpoint markers: GZMB, RNA", "setting": "[9]", "result": "3.95 and 3.63"},
      {"measurement": "Mouse survival: status at the day given (Mouse dead = 1, Mouse alive = 0)", "setting": "[10]", "result": 1},
      {"measurement": "adverse effects on mouse well-being by body weight", "setting": "[11]", "result": "no adverse effects"}
    ]}
  ]
}
